Starred links: 1 amine or outer side, 2 acyl side, 3 side chain; linkers in the order of their positions; H or OH if unused. Non-standard residues stand in square brackets, D forms with d. Residues, ends and D or L forms follow the SMILES beside them. X1 = O=C([C@@H]1C[C@@H](c2ccccc2)[C@@H]1CN[*:1])[*:2]; X2 = O=C([C@H]1C[C@H](c2ccccc2)[C@H]1CN[*:1])[*:2]

Results on five compounds are retold here after BindingDB's records for doi:10.1021/acs.jmedchem.3c00363 (University of Regensburg, 2023).

In the assay the target is Neuropeptide Y receptor type 1 (Homo sapiens) (UniProt P25929). Description: Displacement of [3H]UR-MK299 from human Y1 receptor expressed in human SK-N-MC cells measured after 90 mins by MicroBeta plate counter based competition binding assay. (Loss of bound radioactivity is the signal in a displacement assay; it reports binding, not function.)
Chain of Neuropeptide Y receptor type 1 (Homo sapiens) (P25929 whole entry, looked up): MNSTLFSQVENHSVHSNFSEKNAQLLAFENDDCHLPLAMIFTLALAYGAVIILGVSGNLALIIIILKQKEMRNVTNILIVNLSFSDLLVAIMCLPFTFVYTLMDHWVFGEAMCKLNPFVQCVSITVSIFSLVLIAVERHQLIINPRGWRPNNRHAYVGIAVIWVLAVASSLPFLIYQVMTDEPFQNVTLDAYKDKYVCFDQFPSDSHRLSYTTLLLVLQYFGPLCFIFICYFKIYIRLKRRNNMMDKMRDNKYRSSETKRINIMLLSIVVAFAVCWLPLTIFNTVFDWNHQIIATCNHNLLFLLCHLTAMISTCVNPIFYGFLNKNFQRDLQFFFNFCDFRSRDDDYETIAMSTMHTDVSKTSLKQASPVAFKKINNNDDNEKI
As usually defined, the Ki is the equilibrium dissociation constant of an inhibitor or competing ligand from its target. A high value points to weaker binding. `CC(=O)N[C@@H](CCCNC(=N)N)C(=O)N[C@@H](Cc1ccc(O)cc1)C(=O)N[C@@H](CCCNC(=N)N)C(=O)N[C@@H](CC(C)C)C(=O)N[C@@H](CCCNC(=N)N)C(=O)N[C@@H](Cc1ccc(O)cc1)C(N)=O` displayed a Ki of 1180 nM.

`CC(=O)N[C@@H](CCCNC(=N)N)C(=O)NC[C@H]1[C@@H](C(=O)N[C@@H](CCCNC(=N)N)C(=O)NC[C@H]2[C@@H](C(=O)N[C@@H](CCCNC(=N)N)C(=O)N[C@@H](Cc3ccc(O)cc3)C(N)=O)C[C@@H]2c2ccccc2)C[C@@H]1c1ccccc1` (Ac-R[X2]R[X2]RY-NH2) yielded a Ki of over 1050 nM.

As to `CC(=O)N[C@@H](CCCNC(=N)N)C(=O)NC[C@@H]1[C@H](C(=O)N[C@@H](CCCNC(=N)N)C(=O)N[C@@H](CC(C)C)C(=O)N[C@@H](CCCNC(=N)N)C(=O)N[C@@H](Cc2ccc(O)cc2)C(N)=O)C[C@H]1c1ccccc1` (Ac-R[X1]RLRY-NH2), the affinity, expressed as Ki, was 230 nM.

For `CC(=O)N[C@@H](CCCNC(=N)N)C(=O)NC[C@H]1[C@@H](C(=O)N[C@@H](CCCNC(=N)N)C(=O)N[C@@H](CC(C)C)C(=O)N[C@@H](CCCNC(=N)N)C(=O)N[C@@H](Cc2ccc(O)cc2)C(N)=O)C[C@@H]1c1ccccc1` (Ac-R[X2]RLRY-NH2), the Ki is over 3000 nM.

`CC(=O)N[C@@H](CCCNC(=N)N)C(=O)NC[C@@H]1[C@H](C(=O)N[C@@H](CCCNC(=N)N)C(=O)NC[C@@H]2[C@H](C(=O)N[C@@H](CCCNC(=N)N)C(=O)N[C@@H](Cc3ccc(O)cc3)C(N)=O)C[C@H]2c2ccccc2)C[C@H]1c1ccccc1` (Ac-R[X1]R[X1]RY-NH2) returned a Ki of over 1000 nM.
